Where two headings read alike, the source gives them in different places.
Tests used:
Alfalfa seeds = test: Pot test: germination of alfalfa seeds on treated soil; format: in vivo
From the text: The effectiveness of these granular materials in preventing the germination of alfalfa seeds was used as an assay of the continued performance of the 2,4-D admixed with the melamine compositions. As long as significant quantities of 2,4-D are present, alfalfa seed will not germinate completely. When the alfalfa seeds receiving the treatment germinate comparably to seeds which received no treatment, the period of effectiveness of the 2,4-D has ended.
Alfalfa seeds (1 gram) were planted on the surface of sieved unsterile compost soil in 2½ in. x 2½ in. (6.3 cm x 6.3 cm) plastic pots. Each test pot stood in a plastic saucer in order to avoid contamination between pots. After introduction of the seeds, the pots were well watered from the top and covered with another plastic dish until germination was established. This avoided unnecessary drying out of the soil and maintained an intimate moist atmosphere for seed germination. All test pots were kept in a controlled temperature room at 70°F for the duration of the trial. After germination was established the covers were removed to avoid any restriction of seedling growth. Seeds and plants were monitored daily, watered evenly as necessary, and growth changes recorded.
A series of four pot treatments was set up as follows: • (a) control pots to which no chemical was applied; • (b) 2,4-D alone (applied at a rate equivalent to 22.7 kg of 2,4-D/ ha ); • (c) 2,4-D/melamine granules of Example 1 (applied at a rate equivalent to 22.7 kg of 2,4-D/ha ); and • (d) melamine granules (not containing 2,4-D) in an amount equal to that used in treatment (c).
The melamine/binder ratio was essentially the same in the granules used in treatments (c) and (d), the difference being in the presence or absence of 2,4-D. The granules were used by distributing them over the soil surfaces in the pots.
For each treatment, replicates of three pots were set up in four groups (A), (B), (C) and (D) so that alfalfa seeds could be planted on undisturbed soil for each of the following three weeks. All pots in each series were treated equally from the outset with respect to applied material, watering and light. The experiment was started when the treatments were applied to all of the pots by sprinkling the applied material on the surface of the soil, and pots (A) were planted. One week later, alfalfa seeds were planted in pots (B). Another week later, pots (C) were planted with alfalfa seeds and finally three weeks after application of the chemicals, pots (D) were planted with alfalfa seeds.
The pots in the four groups of pots A, B, C and D thus were treated at the same time, some pots receiving treatment (a): no chemical applied, to provide a control; some treatment (b): 2,4-D alone applied; and so on. […]

weeds = test: Pot test with Douglas-fir seedlings: weed growth on the soil surface; format: in vivo
From the text: (§1) The following granular herbicide formulations were used: • (a) 2,4-D 5%, melamine 71%, urea 24% • (b) 2,4-D 4.7%, melamine 88.1%, resin solids 7.2% • (c) 2,4-D/KL (a controlled release formulation of 2,4-D with kraft lignin 10%, melamine 72%, urea 18% • (d) Velpar® herbicide 5.35%, melamine 90.35%, resin solids 4.3% (V/MI) • (e) b and d, applied together • (f) control, no treatment • (g) technical 2,4-D treatment
(§2) Douglas-fir seedlings (2.0) were planted in 10" (25 cm) diameter pots. Each of the above five granule treatments was applied to three potted firs. Two control sets of potted seedlings had respectively no treatment, and an application of commercial 2,4-D, for comparison. In the application of the commercial 2,4-D, the fine powdered material was applied evenly to the soil surface, using the same 2,4-D material employed in making the granular formulations.
(§3) The 2,4-D was applied in all sets at the equivalent rate of 22.7 kg ai/ha and the Velpar® herbicide at 23.8 kg ai/ha (ai = active ingredient).
(§4) These sets were monitored for seedling height growth, growth quality of the seedling, and weed growth surrounding the seedling, represented as a % of soil surface.
There were no visible weeds present on the soil at the time of treatment. However, volunteer weed seeds were always present in the atmosphere and daily settled on the soil surface. […]

Douglas-fir seedlings = test: Pot test with Douglas-fir seedlings: seedling height growth; format: in vivo; conditions: Fig. 4: 24 weeks after the treatment date
From the text: as §1, §2, §3, §4
In the drawings, Figs. 1 and 3 compare the weed growth observed following soil treatment, using the pot-planted Douglas fir seedlings. […]

[1] = Rate of release from granules in dialysis tubing into a water bath; format: physicochemical; conditions: after 8-9 days
Protocol: Each of these formulations was made up into granules that were screened to fall within the size range of 0.84 to 1.41 mm.
In order to make measurements on the amount of herbicide released from each set of granules, a sample was taken of each. The sample was placed in dialysis tubing. The tubing was submerged in a covered container of distilled water containing 10 liters of water at 22°C. The solution was agitated and 10 ml. aliquots were removed at appropriate times.
The aliquots were subjected to analyses by an ultra-violet spectrophotometer at 203, 247 and 284 nm. respectively, for determination of the contents of melamine and herbicide.

[2] = pH 7, cited from earlier work
[3] = Table II (Example 3), soil treatment applied at 0 days, 22.7 kg of 2,4-D/ha

O=C(O)COc1ccc(Cl)cc1Cl [2,4-D, 2,4-dichlorophenoxyacetic acid]
mortality or aborted germination (Alfalfa seeds; Example 3, (A) pots, planted at 0 days): 100% | Extent of Germination (B) Pots Planted; 7 Days Later (Alfalfa seeds; [3]): 80% | Extent of Germination (C) Pots Planted; 14 Days Later (Alfalfa seeds; [3]): 90% | Extent of Germination (D) Pots Planted; 21 Days Later (Alfalfa seeds; Table II (Example 3), soil treatment applied at 0 days, 22.7 kg of 2,4-D/ha, listed as 2,4-D alone): germinating as well as the controls | weed control (in words) (weeds; 2,4-D 22.7 kg ai/ha, Velpar herbicide 23.8 kg ai/ha): initially gave good weed control | weed population occupied % of the soil surface (weeds; by fourteen weeks, 22.7 kg ai/ha): ~90% | mean height growth (Douglas-fir seedlings): 28 cm. | height growth greater than the non-treated control (Douglas-fir seedlings; control 20 cm): 40% | herbicide entered the bath [1]: 100%

Nc1nc(O)nc(O)n1 [Ammelide]
Solubility (g/100g) ([2]; water at 20°C): less than 0.008 g/100g

Nc1nc(N)nc(O)n1 [Ammeline]
Solubility (g/100g) ([2]; water at 20°C): 0.008 g/100g

Nc1nc(N)nc(-c2ccccc2)n1 [Benzoguanamine]
Solubility (g/100g) ([2]; water, 22°C): 0.06 (22°C) g/100g

O=c1[nH]c(=O)[nH]c(=O)[nH]1 [Cyanuric Acid]
Solubility (g/100g) [2]: 0.27 g/100g

N#CNC(=N)N [Dicyandiamide]
Solubility (g/100g) [2]: 2.26 (at 13°C) g/100g

Nc1nc(N)nc(N)n1.O=[N+]([O-])O [Melamine Nitrate]
Solubility (g/100g) [2]: 0.85 g/100g

Nc1nc(N)nc(N)n1 [Melamine]
Solubility (g/100g) ([2]; water at 20°C): 0.50 g/100g

NC(N)=O [Urea]
Solubility (g/100g) ([2]; water, at 25°C): 119.3 (at 25°C) g/100g

Potassium Acid Sulfate
Solubility (g/100g) [2]: 51.4 g/100g

From patent publication EP0135714B1, “Sustained release compositions for biologically active materials” (MELAMINE CHEMICALS, INC., priority 1983, dated 1985)
